Experimental findings from publication PMC9410537, “Discovery of Ircinianin Lactones B and C—Two New Cyclic Sesterterpenes from the Marine Sponge Ircinia wistarii” (Marine Drugs, 2022) are described below.

The structures appear in SMILES notation. Where two headings read alike, the source gives them in different places.

The subject of assay [1] is HeLa human cervical carcinoma cell line. The assay can be described thus: In vitro cytotoxicity assay with HeLa cells (resazurin). It counts as cell-based. How it is done:
In vitro cytotoxicity assay with HeLa cells: The cytotoxicity test against the HeLa human cervical carcinoma cell line was performed as described previously in RPMI cell culture medium supplemented with 10% fetal bovine serum using the 7-hydroxy-3H-phenoxazin-3-one-10-oxide (resazurin) assay. Briefly, a 2-fold serial dilution of the test compounds was prepared in duplicates in a microtiter plate and seeded with trypsinized HeLa cells to a final cell concentration of 1 × 10^4 cells per well. After 24 h of incubation at 37 °C, with 5% CO2 and 95% relative humidity, resazurin was added at a final concentration of 200 μM, and cells were again incubated overnight. Cell viability was assessed by determining the reduction of resazurin to the fluorescent resorufin. Fluorescence was measured in a TECAN Infinite M200 reader at an excitation wavelength of 560 nm and an emission wavelength of 600 nm in relation to an untreated control.
(Alamar Blue is a resazurin reagent that responds to reducing activity.)

Assay [2] concerns Trypanosoma brucei rhodesiense STIB900. The assay can be described thus: Activity against Trypanosoma brucei rhodesiense STIB900 (resazurin). Conditions: Table 2 values are means of two independent assays.
Experimental: Activity against Trypanosoma brucei rhodesiense STIB900. […] Minimum Essential Medium (50 µL) supplemented with 25 mM HEPES, 1 g/L additional glucose, 1% MEM non-essential amino acids (100×), 0.2 mM 2-mercaptoethanol, 1 mM Na-pyruvate and 15% heat inactivated horse serum was added to each well of a 96-well microtiter plate. Serial drug dilutions ranging from 100 to 0.002 μg/mL were prepared. Then, 4 × 10^3 bloodstream forms of T. b. rhodesiense STIB 900 in 50 µL were added to each well and the plate was incubated at 37 °C under a 5% CO2 atmosphere for 70 h. 10 µL of a resazurin solution (resazurin, 12.5 mg in 100 mL double-distilled water) was then added to each well and incubation continued for a further 2–4 h [70]. The plates were read with a Spectramax Gemini XS microplate fluorometer (Molecular Devices Cooperation, Sunnyvale, CA, USA) using an excitation wavelength of 536 nm and an emission wavelength of 588 nm. Data were analyzed using Softmax Pro (Molecular Devices Cooperation, Sunnyvale, CA, USA), which calculated IC50 values by linear regression [71] and 4-parameter logistic regression from the sigmoidal dose inhibition curves.
The subject of assay [3] is Mytilus galloprovincialis larvae. Nature of the assay: Marine antifouling assay, larval settlement and metamorphosis. Conditions: up to the highest concentration tested (100 µg/mL), 5 days. As to the method:
(§1) Antifouling activity was assessed via inhibition of settlement and metamorphosis of larvae of the Pacific transparent sea squirt (Ciona savignyi) and the blue mussel (Mytilus galloprovincialis). Methods followed those published by Grant et al.. Adults of both species were collected from coastal populations in the Nelson region of New Zealand, held in a recirculating seawater system (18 ± 1 °C, 33 ± 1 PSU) and fed bulk-cultured Isochorysis galbana until ready to spawn. Larval spawning and rearing procedures followed previously described methods for C. savignyi and M. gallorprovincialis. Competent larvae were diluted in artificial seawater to yield 3 ± 1 larvae/mL. Aliquots of these larval suspensions were added to 12-well tissue culture plates (Corning Co-Star) containing serial dilutions of 1 ranging from 0.1–100 µg/mL. Controls were included, and three replicates were performed in all cases. After 5 days of incubation at 18 ± 1 °C, the number of successfully settled and metamorphosed individuals were counted in each well. Sigmoidal dose-response relationships were explored using R Statistical Software to determine whether inhibition had occurred relative to the controls.

The subject of a further assay is Ciona savignyi larvae. Described as above. Conditions: up to the highest concentration tested (100 µg/mL), 5 days. As to the method:
as §1

Assay [4] has as its system set of clinically relevant bacteria (ESKAPE panel and one mycobacterial strain). The assay can be described thus: Antibacterial assay (MIC), whole strain panel. It counts as cell-based. Particulars: highest concentration tested. As to the method:
The minimal inhibitory concentration (MIC) was determined as described previously in cation-adjusted Mueller-Hinton medium according to the standards and guidelines of the Clinical and Laboratory Standards Institute. […] After an overnight incubation at 37 °C, the MIC was read as the lowest compound concentration preventing visible bacterial growth. The strain panel included representative species of nosocomial pathogens, known as “[…]” bacteria. Specifically, the following strains were used: Enterococcus faecium BM 4147-1, Staphylococcus aureus ATCC 29213, Klebsiella pneumoniae ATCC 12657, Acinetobacter baumannii 09987, Pseudomonas aeruginosa ATCC 27853, and Enterobacter aerogenes ATCC 13048. Bacillus subtilis 168, Escherichia coli ATCC 25922, and Mycobacterium smegmatis mc^2 155 ATCC 700084 were used as further reference strains.

The next assay deals with Wolbachia endosymbionts. The assay can be described thus: Anthelmintic assay, depletion of Wolbachia endosymbionts from cultured adult female worms. It counts as cell-based, Litomosoides sigmodontis. Particulars: 0.1, 1 and 10 µM, two weeks of in vitro culture; not statistically significant. How it is done:
To investigate the activity against filarial nematodes, adult female worms of the rodent filarial nematode Litomosoides sigmodontis were cultured in vitro with a 0.1, 1 and 10 µM concentration of 1. Motility of adult filariae as well as reduction of Wolbachia endosymbionts were assessed. […] L. sigmodontis adult female worms were isolated from chronically infected cotton rats (UKB). Three L. sigmodontis female adult worms per condition were cultured in supplemented Minimal Essential Medium (MEM) on a LLCMK2 cell layer, as previously described. […] Candidate 1 was tested at concentrations of 0.1, 1 and 10 µM. Filarial viability was assessed by determining the mean worm motility scores on a scale of 0 (immotile) to 2 (maximum motility) before drug addition and at 1 h, 1 day, 2 day, 4 day, 6 day, 8 day, 10 day, 12 day and 14 day post drug addition. The drug-containing media was renewed every other day. Depletion of Wolbachia endosymbionts from female adult worms was analyzed after two weeks of in vitro culture and determined as previously described using primers for the single copy gene Wolbachia ftsZ.

For assay [5], the system named is L-6 cells (rat skeletal myoblasts). Nature of the assay: In vitro cytotoxicity assay with L-6 cells (resazurin). It counts as cell-based. Particulars: L6, L-6 cells, read-out: IC50 L6. As to the method: In vitro cytotoxicity assay with L-6 cells. Assays were performed in 96-well microtiter plates, each well containing 100 μL of RPMI 1640 medium supplemented with 1% L-glutamine (200 mM) and 10% fetal bovine serum, and 4000 L-6 cells (a primary cell line derived from rat skeletal myoblasts). Serial drug dilutions ranged from 100 to 0.002 μg/mL. After 70 h of incubation, the plates were inspected under an inverted microscope to assure growth of the controls and sterile conditions. 10 μL of resazurin was then added to each well and the plates were incubated for another 2 h. […] Podophyllotoxin (Sigma P4405) was used as control (IC50 0.011 ± 0.005 μM).

Assay [6] deals with L. donovani strain MHOM/ET/67/L82 axenic amastigotes. Nature of the assay: Activity against L. donovani axenic amastigotes (resazurin). It counts as cell-based, Leishmania donovani. Particulars: Leishmania donovani, in vitro, Table 2 values are means of two independent assays. As to the method:
Activity against L. donovani axenic amastigotes. Amastigotes of L. donovani strain MHOM/ET/67/L82 were grown in axenic culture at 37 °C in SM medium at pH 5.4 supplemented with 10% heat-inactivated fetal bovine serum under an atmosphere of 5% CO2 in air. 100 µL of culture medium with 10^5 amastigotes from axenic culture with or without a serial drug dilution were seeded in 96-well microtiter plates. Serial drug dilutions ranged from 100 to 0.002 μg/mL. After 70 h of incubation, the plates were inspected under an inverted microscope to assure growth of the controls and sterile conditions.

With `CC1=C[C@@H](/C=C(\C)CCCc2ccoc2)[C@]2(OC(=O)C(C)=C2O)[C@@H]2[C@@H](C)CC[C@@H]12` [compound 1, Ircinianin], the IC50 in assay [1] is above 64 µg/mL; in assay [2] (Trypanosoma brucei, RHODESIENSE|STIB900, read-out: IC50 T. brucei rhodesiense, in vitro, STIB900 bloodstream forms) it was above 80 µM; in assay [2] (read-out: IC50 T. brucei rhodesiense, in vitro, STIB900 bloodstream forms, listed as Ircinianin (1)), 82.8 µM; in assay [5] (70 h incubation), 150 µM; in assay [5] (single cell line assays (Table S7)), 59.5 µg/mL; in assay [6] it was 16.6 µM. Further, the “Inhibitory effect on larval settlement and metamorphosis” value (in assay [3]; in the assay with Ciona savignyi larvae) was “inactive” each time. In addition, the MIC in assay [4] was above 32 µg/mL. Further, the “Wolbachia reduction in comparison to media controls” value in the assay on Wolbachia endosymbionts is on record as below 32%.

Broadly, the IC50 is the point on the concentration scale where inhibition reaches its midpoint. Broadly, the MIC is the lowest concentration found to suppress growth. Low values mean greater potency, high ones weaker potency.
